# Experimental data published in patent US6586461B1, “Prenyl transferase inhibitors” (Wayne State University, priority 1998, dated 2003).
# “Also recorded” adds a separate entry of the source.
# Tests used:
# [1] = system: H-Ras-F cells; assay: Cell morphology of lovastatin-treated H-Ras-F cells; format: cell-based; details: 25 μM lovastatin 24 h, then analog 24 h
# Experimental: It has been well established that levels of lovastatin that completely block the mevalonate pathway result in cell cycle blockade, significant cytotoxicity, and a sharp change in cell appearance to a rounded morphology. The effects of lovastatin on the cell morphology of H-Ras-F and H-Ras-GG cells treated with FPP, GGPP, 3-vFPP, 3-vGGPP, 3-alFPP, and 3-alGGPP were photographed and the results are shown on FIG. 9 (H-Ras-F) and 8 (H-Ras-GG), respectively. The H-Ras-F and H-Ras-GG cells were grown in six-well plates to 70-80% confluence. After treating the cells with lovastatin (25 μM) for 24 hour, the indicated FPP or GGPP analogs (re-suspended in media) were added directly to the cell media. Photographs were taken after an additional 24 hour incubation period.
# [2] = system: NIH 3T3 fibroblasts transfected with a transforming form of c-raf [Raf]; assay: Soft agar anchorage-independent growth, Raf cells; format: cell-based; details: 2 weeks, mean of two tests
# Experimental: (§1) Presumably, the non-polar alcohols pass through the cell membrane and are then diphosphorylated by an as yet uncharacterized kinase to FPP or GGPP.
# (§2) The 3-substituted analogs were evaluated as inhibitors of the growth of ras-transformed cells by comparing their relative degree of activity against an isogenic panel of transformed cell lines, comprised of NIH 3T3 fibroblasts transfected with either H-Ras(61 L) [H-Ras-F], H-Ras(61 L)CVLL [H-Ras-GG], or a transforming form of c-raf [Raf]. The H-Ras-F, H-Ras-GG, and raf transformed NIH3T3 cell lines have been previously described in Cox, et al., Molecular and Cellular Biology, Vol. 12, No. 6, pages 2606-2615 (1992). The cells were grown prior to plating in Dulbecco's modified Eagle medium supplemented with 10% calf serum and 1% antibiotic/antimycotic at 37° C. and 10% CO2. Experiments were carried out in 6-well dishes in a two layer agar system (0.6% bottom layer and 0.3% top layer). Cells were incorporated into the top layer along with varying concentrations of the compound prepared in ethanol. Compound addition occurred only at the time the cells were seeded. Subsequent incubation was at 37° C. with 10% CO2 for 2 weeks. Colonies were stained with 0.5 ml/well of 1 mg/ml p-iodonitrotetrazolium violet (Sigma) for 24 hours prior to quantitation by image analysis.
# [3] = system: NIH 3T3 fibroblasts transfected with H-Ras(61 L)CVLL [H-Ras-GG]; assay: Soft agar anchorage-independent growth, H-Ras-GG cells; format: cell-based; details: 2 weeks, read-out: Mean IC50 (±S.E.) H-Ras-GG
# Experimental: as §1, §2
# [4] = system: H-Ras-GG in H-Ras-GG cells; assay: Subcellular fractionation / Western blot of Ras in lovastatin-treated H-Ras-GG cells; format: cell-based; details: summary statement
# Experimental: (§3) H-Ras-F (A) or H-Ras-GG (B) cells were treated with 25 μM lovastatin for 24 h after which the indicated FPP or GGPP analogs (resuspended in media) were added directly to the cell media. Following an additional 24 h incubation period, the cells were harvested, lysed and the membranes (M) separated from the cytosol (C). After solubilization of the membrane fraction, Ras protein was immunoprecipitated from both the membrane and cytosolic fractions by the addition of the Y13-259 antibody (OP04 from Oncogene Science). The presence of Ras protein in each fraction was analyzed by Western transfer techniques. Incubation with the primary antibody (pan-ras Ab-2 from Oncogene Science) and an anti-mouse HRP conjugate secondary antibody (Amersham) was employed for detection of the ras protein. Blots were developed using Enhanced Chemiluminescence techniques (Amersham). The technique is described in detail by Scholten, et al., Bioorg. Med. Chem., Vol. 4, pages 1537-1543 (1992).
# The selectivity and mechanism of the observed cell growth inhibition was further probed by studying the effects of the 3-vinyl and 3-allyl GGPP analogs on the subcellular distribution of the geranylgeranylated protein variant in H-Ras-GG cells in a manner similar to that described for 3-vFPP and 3-alFPP. The Western blot is shown on FIG. 8. With H-Ras-GG cells, as with H-Ras-F cells, blockage of the mevalonate pathway results in a shift in the subcellular location of the Ras protein from the membrane to the cytosol.
# [5] = system: NIH 3T3 fibroblasts transfected with H-Ras(61 L) [H-Ras-F]; assay: Soft agar anchorage-independent growth, H-Ras-F cells; format: cell-based; details: for IC50: soft agar, 2 weeks, read-out: Mean IC50 (±S.E.) H-Ras-F
# Experimental: as §1, §2
# [6] = biological target: T1, recombinant yeast FTase (yFTase) (Saccharomyces cerevisiae, UniProt P22007+P29703); details: cited from earlier work
# T1 sequence (P22007 1-431): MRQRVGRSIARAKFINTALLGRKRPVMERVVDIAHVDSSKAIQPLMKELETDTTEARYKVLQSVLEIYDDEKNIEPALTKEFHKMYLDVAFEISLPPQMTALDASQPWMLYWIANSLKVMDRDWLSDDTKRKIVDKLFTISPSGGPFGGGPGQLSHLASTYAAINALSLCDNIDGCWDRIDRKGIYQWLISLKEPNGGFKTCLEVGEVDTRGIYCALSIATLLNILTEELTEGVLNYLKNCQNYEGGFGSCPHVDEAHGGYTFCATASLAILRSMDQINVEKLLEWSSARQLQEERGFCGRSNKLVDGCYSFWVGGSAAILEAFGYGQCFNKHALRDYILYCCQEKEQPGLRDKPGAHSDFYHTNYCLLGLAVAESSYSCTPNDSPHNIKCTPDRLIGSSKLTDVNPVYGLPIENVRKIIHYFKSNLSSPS
# T1 sequence (P29703 1-316): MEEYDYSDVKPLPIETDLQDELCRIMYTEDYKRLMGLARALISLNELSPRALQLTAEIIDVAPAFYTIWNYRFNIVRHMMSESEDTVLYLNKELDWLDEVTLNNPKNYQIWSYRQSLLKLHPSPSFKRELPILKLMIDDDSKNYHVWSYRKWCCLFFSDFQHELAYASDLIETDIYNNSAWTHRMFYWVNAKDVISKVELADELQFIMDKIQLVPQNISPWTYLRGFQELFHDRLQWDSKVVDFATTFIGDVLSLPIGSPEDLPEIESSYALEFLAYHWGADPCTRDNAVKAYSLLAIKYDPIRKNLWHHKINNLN
# [7] = biological target: recombinant mGGTase I (Homo sapiens, UniProt P49354+P53609); assay: GGTase I scintillation proximity assay; format: biochemical; details: tritiated GGPP
# Experimental: (§4) The method is described in detail in Yokama, et al., J. Biol. Chem., Vol. 272, No. 7, pages 3944-3952 (February 1997). The FTase, tritiated FPP, and the peptide were incubated at 37° C. for 30 minutes in a buffer. After incubation, a stop reagent and streptavidin beads (Amersham) were added. The radioactive product was counted on a Wallac Microbeta 1450 scintillation counter. The kinetic fits were derived from a nonlinear least squares computer fit of the data. The Ki values were determined using the same assay system with varying concentrations of tritiated FPP.
# GGTase I values were determined in a similar manner using recombinant mGGTase I, tritiated GGPP, and the peptide Biotin-Aha-Thr-Lys-Cys-Val-Ile-Leu-OH.
# [8] = biological target: recombinant mFTase (affinity purified rat FPTase) (Rattus norvegicus, UniProt Q02293+Q04631); assay: FTase scintillation proximity assay; format: biochemical; details: for IC50: recombinant mFTase, tritiated FPP 0.12 μM, peptide 0.1 μM; for FTase/GGTase: selectivity mFTase against mGGTase I; for Ki: varying concentrations of tritiated FPP, read-out: K1 FTase
# Experimental: as §4
# [9] = system: H-Ras in H-Ras-F cells; assay: Subcellular fractionation / Western blot of Ras in lovastatin-treated H-Ras-F cells; format: cell-based; details: for Subcellular location of H-Ras (membrane vs cytosol): H-Ras-F cells, 25 μM lovastatin 24 h, then analog 24 h
# Experimental: as §3, with “Following” for “H-Ras-F (A) or H-Ras-GG (B) cells were treated with 25 μM lovastatin for 24 h after which the indicated FPP or GGPP analogs (resuspended in media) were added directly to the cell media. Following”
# The results are shown in FIGS. 6 and 7 which are Western blots of the H-Ras-F and H-Ras-GG experiments, respectively. H-Ras-F cells were treated with lovastatin in order to block the mevalonate pathway, prevent the formation of FPP and GGPP, and thus, inhibit protein prenylation.
# [10] = system: HPAC (human pancreatic adenocarcinoma cells); assay: Proliferation of HPAC cells, Trypan Blue exclusion; format: cell-based; details: 48 hours
# Experimental: The malignant human cell line HPAC (human pancreatic adenocarcinoma cells) was used in this study. The cells were seeded at a concentration of 2×10^5/ml in 24 well culture plate (Costar, Cambridge, Mass). […] Varying amounts of the stock solutions were then used to treat the HPAC cells. The final concentration of the farnesol analogs in the culture plate wells ranged from 0 nM (ethanol-treated control) to 500 nM. The plate was then incubated at 37° C. under a 5% CO2-humidified atmosphere for 48 hours. The total viable cells from each well were determined by Trypan Blue (0.4%) exclusion (Gibco, N.Y.) followed by cell counting.
compound,measurement,setting,value
"CC(C)=CCC/C(C)=C/CC/C(C)=C/CC/C(C)=C/CO [geranylgeraniol, reference compound]",Reversal of rounded morphology of lovastatin-treated H-Ras-F cells,[1],can be reversed
"C=C/C(=C\CO)CC/C=C(\C)CC/C=C(\C)CCC=C(C)C [3-vinyl Geranylgeraniol, 3-Vinyl-7,11,15-trimethylhexadeca-2(Z),6(E),10(E),14-tetraen-1-ol]",IC50,[2],5.6 µM
same,IC50,[3],13.9 ± 2.3 µM
same,Protein geranylgeranylation in cells,[4],restores protein geranylgeranylation in cells
same,IC50,[5],18 ± 4.1 µM
"C=C/C(=C\COP(=O)(O)OP(=O)(O)O)CC/C=C(\C)CCC=C(C)C [Compound 3-vFPP, 3-Vinyl-7,11-dimethyldodeca-2(Z),6(E),10-triene 1-Diphosphate]",Substrate activity for yFTase,[6],poor alternative substrate
same,IC50,[7],~100 µM
same,Mode of inhibition of mFTase versus FPP,[8],competitive inhibitors
same,IC50,[8],0.173 µM
same,FTase/GGTase,[8],˜600
same,Ki,[8],0.096 µM
same,Reversal of rounded morphology of lovastatin-treated H-Ras-F cells,[1],modest ability to do so
same,Blocking of prenylation of Ras proteins in H-Ras-F cells,[9],neither 3-vinylfarnesol nor 3-vFPP blocked the prenylation of Ras proteins
same,Subcellular location of H-Ras (membrane vs cytosol),[9],virtually complete localization of the H-Ras protein in the membrane fraction (M)
"CC(C)=CCC/C(C)=C/CC/C(=C/CO)C(C)(C)C [3-tert-butylfarnesol, 3-tert-Butyl-7,11-dimethyldodeca-2(Z),6(E),10-trien-1-ol]","Cellular activity (transformed cell growth, soft agar), in words",[5]; transformed NIH3T3 cell lines,inactive in cells
CC(C)=CCC/C(C)=C/CC/C(=C/COP(=O)(O)OP(=O)(O)O)c1ccccc1 [Compound 3-phFPP],IC50,[8],0.299 µM
same,FTase/GGTase,[8],>340
"3-Allyl 7,11-dimethyldodeca-2(Z),6(E),10-trien-1-ol [3-ally Farnesol]",Effect on HPAC cells at 100 nM,[10]; 100 nM,cytostasis
same,Viable HPAC cell count at 100 nM,"[10]; 100 nM, seeded 2×10^5/ml, control well 2.2×10^6 cells",~2×10^5 /well
same,Effect on HPAC cells at 500 nM,"[10]; 500 nM, listed as 3-allylfarnesol",potently cytotoxic; also recorded: complete cytotoxicity
"CC[C@H](C)C(=O)O[C@H]1C[C@@H](C)C=C2C=C[C@H](C)[C@H](CC[C@@H]3C[C@@H](O)CC(=O)O3)[C@H]21 [lovastatin, reference compound]",Subcellular location of H-Ras (membrane vs cytosol),[9],shift of the majority of H-Ras from the membrane fraction (M) to the cytosol (C)
"CC(C)=CCC/C(C)=C/CC/C(=C/COP(=O)(O)OP(=O)(O)O)C(C)(C)C [Compound 3-tbFPP, 3-tert-butyl-2(Z),6(E),10-triene diphosphate]",Inhibition of yFTase,[6],potent competitive inhibitor
same,Substrate activity for yFTase,[6],exceptionally poor substrate
same,IC50,[7],~50 µM
same,Mode of inhibition of mFTase versus FPP,[8],competitive inhibitors
same,IC50,[8],0.031 µM
same,FTase/GGTase,[8],˜1600
same,Ki,[8],0.008 µM
"C=CC/C(=C\COP(=O)(O)OP(=O)(O)O)CC/C=C(\C)CCC=C(C)C [Compound 3-alFPP, 3-Allyl-7,11-dimethyldodeca-2(Z),6(E),10-triene 1-diphosphate]",Mode of inhibition of mFTase versus FPP,[8],competitive inhibitors
same,IC50,[8],0.189 µM
same,FTase/GGTase,[8],>530
same,Ki,[8],0.031 µM
same,Reversal of rounded morphology of lovastatin-treated H-Ras-F cells,[1],not able to reverse the morphology
same,Subcellular location of H-Ras (membrane vs cytosol),[9],virtually all of the H-Ras being found in the cytosol
CC(C)=CCCC(C)=CCCC(=CCO)c1ccccc1 [3-phenyl Farnesol],IC50,[3],> 25 µM
same,IC50,[5],> 25 µM
"CC(C)=CCC/C(C)=C/CC/C(C)=C/CC/C(C)=C/COP(=O)(O)OP(=O)(O)O [GGPP, geranylgeranyl diphosphate, reference compound]",Reversal of rounded morphology of lovastatin-treated H-Ras-F cells,[1],can be reversed
CC/C(=C\COP(=O)(O)OP(=O)(O)O)CC/C=C(\C)CCC=C(C)C [Compound 3-etFPP],IC50,[8],0.215 µM
same,FTase/GGTase,[8],>460
CCC(=CCO)CCC=C(C)CCC=C(C)C [3-ethyl Farnesol],IC50,[3],> 25 µM
same,IC50,[5],> 25 µM
